Assay results reported in paper PMC11938014, “Development and Application of Small Molecule–Peptide Conjugates as Cathepsin K-Specific Covalent Irreversible Inhibitors in Human Osteoclast and Lung Cancer” (JACS Au, 2025).
pKi: −log10 of the molar value.

How the values were obtained:
[1] = molecular target: T1, CTSB (Homo sapiens, UniProt P07858); test: Kinetic evaluation of recombinant cathepsin inhibition, fluorogenic substrate Z-FR-AMC; assay type: biochemical
T1 construct: made in house
Description: Cathepsin (0.4 nM, CatK) or 5 nM (CatS, CatB, and CatL) were each mixed with inhibitors before adding the fluorogenic substrate. The proteases were then reacted with their substrates, Z-RR-AMC (CatL) or Z-FR-AMC (CatS, CatB, and CatK), for 30 min at 37 °C in the phosphate buffer (100 mM Na2HPO4/NaH2PO4, 50 mM NaCl, 5 mM DTT, 0.1% PEG-6000, at pH 6). Reactions were done in 96-well black flat-bottom microplates (Greiner, Germany); fluorescence (Ex/Em 370 and 460 nm) was measured by a Tecan INFINITE M1000 pro plate reader (Tecan, Switzerland) in the presence of inhibitors or vehicle. For irreversible inhibitors, reaction data were analyzed by using the one-phase association formula in GraphPad Prism 9 software: Y = Y0 + (plateau – Y0) × (1 – exp(−K × X)), where Y0 and Y denote the fluorescence signals at times 0 and t, respectively, K represents the observed reaction rate kobs, and X signifies the […]. The inactivation rates at each inhibitor concentration were determined by subtracting the inactivation observed in the control sample: kobs – kctrl. The maximum inactivation rate (kinact) was derived as the asymptote from the equation Y = kinact × X/(Ki^app + X), where X represents the inhibitor concentration, Y is the observed inactivation rate for each X, and Ki^app is the apparent inhibition constant. Ki values were derived from IC50 or Ki^app using the equations Ki = Ki^app/(1 + […]) and IC50 = E0/2 + Ki^app, where Km represents the Michaelis–Menten constant, S denotes substrate concentration, and E0 indicates cathepsin concentration. The maximum inhibitor dose in the experiment was 50 μM. Measurements were conducted in multiple independent duplicates. Average values are listed.

[2] = system: human osteoclasts; test: Cell viability assay (methylene blue); assay type: cell-based; conditions: different concentrations, 48 h
Description: […]
Cell viability assay: U2-OS, U-87 MG, or enriched monocyte cells were grown at 37 0C with 5% of CO2 in the respective medium as described previously. Cells were seeded (1500 cells/well in 96 wells plate) one day before the incubation with indicated inhibitor s at various concentrations. After 48 h, cells were fixed, and viability was measured by quantita tive colorimetric assay using methylene blue according to the procedure reported by Ben -Bassat et al.9 The data were expressed as a percentage of control; data represent the mean of 2 experiments with triplicates for each treatment (± standard deviation).
Figure S10. Cell viability assay. a) U2-OS and, b) U-87 MG were incubated with the different concentrations of indicated inhibitors. After a 48 h incubation cells were fixed, and viability was measured by methylene blue assay.The data were expressed as a percentage of control; data represent the mean of 2 experiments with triplicates for each treatment (± SD). Statistical differences were evaluated by two -tailed Student’s t -test from two independent experiments.
Student’s t -test was non-significant except for samples indicated with *, P <0.05 and **, P <0.01. (c) Human osteoclasts were incubated with the different concentrations of indicated inhibitors. After a 48 h incubation cells were fixed, and viability was measured by methylene […]
(also on this page, place not known: t-test non -significant t-test 0 20 40 60 80 100 120 (0.5 µM)(5 µM)(1 µM)(5 µM)(1 µM) (0.5 µM) ODNGD38GD38GD38GD20GD20GD20 (0.5 µM) Cell viability (% of control) Concentration of compound) […]
(1 picture or pasted object on this page, not shown here)

[3] = molecular target: T2, endogenous cathepsin K in human osteoclasts (Homo sapiens, UniProt P43235); test: Fluorescence microscopy of CTSK inhibition in human osteoclasts; assay type: cell-based; conditions: human OC, 3 μM, 2 h; for fluorescence signal of pan-cathepsin probe GB123: then GB123 2 h; for CTSK activity labeled by GD32 probe: then GD32 8 h
T2 construct: endogenous in cells; host or cells: primary human osteoclasts differentiated from blood monocytes with M-CSF and RANKL
T2 sequence (P43235 115-329): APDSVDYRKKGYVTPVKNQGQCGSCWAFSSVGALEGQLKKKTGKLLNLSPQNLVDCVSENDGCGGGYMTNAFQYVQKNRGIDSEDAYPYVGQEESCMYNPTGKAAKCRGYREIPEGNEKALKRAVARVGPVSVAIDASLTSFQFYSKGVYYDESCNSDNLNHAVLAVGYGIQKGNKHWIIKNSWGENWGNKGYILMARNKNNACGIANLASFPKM
Description: We next corroborated CTSK-specific inhibition by fluorescence microscopy studies of OC. Human OC were grown on 8-well plates; the intact cells were treated with either of the CTSK inhibitors or with the vehicle and then with the CTSK-specific fluorescent ABP GD32.[19] The fluorescence microscopy pictures were acquired following cell fixation, which permitted imaging and evaluating CTSK activity and inhibition in cells. […] As the inhibitors are specific to CTSK, they could not block the fluorescence signals of GB123 associated with other cathepsins (B, L, S) (Figure 8b).
Figure 8 Detection of inhibition of endogenous cathepsin K in intact cells by fluorescence microscopy. Enriched human monocytes from peripheral blood mononuclear cells (PBMC) were isolated from healthy donors’ blood and were treated for 14 days with M-CSF and RANKL or M-CSF alone, as indicated. Osteoclast cells were treated with vehicle (DMSO) or indicated inhibitors [3 μM] in a culture medium for 2 h, followed by incubation with (a) GD32 (a specific CTSK ABP) for 8 h or (b) GB123 for 2 h. Similar to those described in panel (a), cultures of U2-OS cells (c) and U-87 MG cells (d) were grown in 8-well chambers. Cells were pretreated with either the DMSO or [3 μM] of indicated specific CTSK inhibitors for 2 h and then labeled by the addition of 1.25 μM GD32 to the culture medium for 24 h (U2-OS) or 2 h (U-87 MG). After fixation, cells were stained with 4′,6-diamidino-2-phenylindole (DAPI) (nucleus), and images were captured by confocal microscopy.
Cells were seeded in 8-well chambers and then treated with an inhibitor or vehicle for 2 h. Cells were then labeled with the indicated probes for the indicated times and then washed with PBS, fixed with cold methanol, and mounted with DAPI-Fluoromount-G (SouthernBiotech, 0100-20) before visualization by confocal microscopy. Zeiss Confocal LSM 980 Microscope with Zen software was used with Airyscan (Germany).

SMILES | type of inhibition, CTSB [1] | pKi ([1]; irreversible inhibitor) | kinact ([1]; read-out: kinact (at 50 μM), CTSB) [s⁻¹] | cell viability (% of control) vs control [2] | fluorescence signal of pan-cathepsin probe GB123 [3] | CTSK activity labeled by GD32 probe [3] | pKi ([1]; maximum inhibitor dose 50 μM)
CC(C)C[C@H](N[C@@H](c1ccc(-c2ccc(S(C)(=O)=O)cc2)cc1)C(F)(F)F)C(=O)NCC(=O)COC(=O)[C@@H]1CCCN1C(=O)[C@H](CCC(N)=O)NC(=O)OCC1c2ccccc2-c2ccccc21 [GD38] | irreversible | < 4.30 | 0.0072 | no significant differences | only a partial reduction | completely abolished CTSK activity | 
CC(C)(F)C[C@H](N[C@@H](c1ccc(-c2ccc(S(C)(=O)=O)cc2)cc1)C(F)(F)F)C(=O)NC1(C#N)CC1 [ODN, odanacatib, reference compound] |  |  |  | no significant differences |  |  | 
CC(C)C[C@H](N[C@@H](c1ccc(-c2ccc(S(C)(=O)=O)cc2)cc1)C(F)(F)F)C(=O)NCC(=O)COC(=O)[C@@H]1CCCN1C(=O)[C@H](CC(C)C)NC(=O)OCC1c2ccccc2-c2ccccc21 [GD20] |  |  |  | no significant differences | only a partial reduction | completely abolished CTSK activity | < 4.30
